# In patent US20090030079A1 (priority 2007, published 2009):
# Like-named read-outs stand apart in the source and are kept apart here.
# How the values were obtained:
# [1] = Pb^2+, cited from earlier work
# [2] = In^3+, cited from earlier work
# [3] = Decorporation of Cobalt-60: tissue distribution and excretion of IV administered Co-60 in rats; format: in vivo, Male Wistar-Han rats; conditions: for Co-60 Dose % for animal group: single IV Co-60 14 KBq, 48 hr post exposure; for effect on total Co-60 excretion (urine and feces): monitored 2 days, not statistically significant, 15 mg/kg
# Method: Materials. Chloride stock solution of ^60Co as ^60CoCl2 was diluted with sterile saline solution to adjust to the desired activity and used for the IV dosing. Activity of the dosing solution was determined using automated Wallac 1480 (Perkin Elmer) gamma counter equipped with 3 inch NaI(TI) crystal shielded detector.
# Animals. Male Wistar-Han rats were obtained from Charles River Breeding Laboratory (Raleigh, N.C.) with indwelling jugular vein cannula. Animals were provided food and water ad libitum during acclimatization. The light cycle was 12 hour light/12 hour dark and relative humidity and temperature maintained at 50±15% and 22±2° C. All animal use protocols were approved by the Institutional Animal Care and Use Committee at Battelle, Pacific Northwest Division and studies were performed according to the “Guide for the Care and Use of Laboratory Animals” (National Research Council, Washington D.C., 1996).
# Dosing regimen. Animals were restricted from food overnight prior to exposure. At the time of exposure, groups of animals (N=6) received a single intravenous (IV) injection (0.2 mL) of ^60Co solution at 14.0±0.6 KBq dose in sterile saline via an indwelling jugular vein cannula. […] The actual doses delivered were calculated based on the individual animal weights (Table 3). One group of animals was dosed with the radionuclide without subsequent administration of the chelation material to serve as control group. Following dosing, animals were placed in Nalgene metabolism cages for separate collection of urine and feces. […] Animals were sacrificed 48 hr post radionuclide administration. At sacrifice, blood and tissues (liver, kidney, spleen, gastrointestinal tract, muscle, bone, bone marrow, and lung) were collected, weighed and counted for radioactivity using a Wallac 1480 gamma counter. Gamma count data were normalized to percent administered dose after adjusting the grams of tissue collected for total organ mass.
# Data statistical evaluation. Each data group was subjected to Dixon's Q-test to evaluate for potential outliers. In this test Q parameter of 0.625 (N=6, 95% confidence level, a=0.05) was used (1). For each tissue, a preliminary F-test (95% confidence level, a=0.05) for the equality of variances of the control and each treatment group was performed using Excel software. If the calculated probability p value was less than 0.05, the variances were assumed to be not equal. Based on this information, “T-test: Two-Sample Assuming Unequal Variances” or “T-test: Two-Sample Assuming Equal Variances” (95% confidence level, a=0.05) was performed using Excel software. The calculated p-value less than 0.05 provides evidence to reject the null hypothesis of equal means. The obtained statistical parameters listed in Table 4 served as guidelines for data evaluation (Table 5; calculation assumes that total skeleton, blood, or muscle is approximately 7.3, 6, or 40% of the body weight of the animal, respectively; Co-60 in skeleton is calculated based on the femur data—R. P. Brown, M. D. Delp, S. L. Undstedt, L. R. Rhomberg, and R. P. Beliles, Physiological Parameter Values for Physiologically Based Pharmacokinetic Models. Toxicology and Industrial Health, 1997, 13(4): 407-484).
# [4] = Tl^1+; cited from earlier work
# [5] = Decorporation of Polonium-210: tissue distribution of IV administered Po-210 in rats; format: in vivo, Wistar-Han rats; conditions: for % Reduction of Po-210 vs Po-210 Control / effect on polonium-210 level (in words): oral 15 mg/kg x 5, day 6; for Po-210 dpm/gm for animal group: single IV Po-210 approx. 90 kBq, oral 15 mg/kg every 24 h x 5, sacrifice day 6
# Method: The digested sample was diluted with distilled water to reduce the nitric acid to approximately 1 M. An aliquot of the resulting solution was added to Ultima Gold XR liquid scintillation cocktail (Packard BioScience, Meriden, Conn.), counted and corrected for possible quenching.
# [6] = Hg^2+, cited from earlier work
# [7] = Co^2+; cited from earlier work
# [8] = Ni^2+, cited from earlier work
# [9] = Zn^2+, cited from earlier work
# [10] = Cd^2+, cited from earlier work
# [11] = Ag^1+, cited from earlier work
# [12] = Cu^1+, cited from earlier work
# [13] = single oral dose 15 mg/kg, day 1 post exposure
smiles,measurement,setting,value
"CC(C)(S)[C@@H](N)C(=O)O [Penicillamine, 3-mercapto-D-valine]",binding stability constant (log K),[1],12.3
same,binding stability constant (log K),[1]; listed as penicillamine,fairly strong
same,binding stability constant (log K),[2],15.33
same,binding stability constant (log K),[2]; listed as penicillamine,very strongly
same,Co-60 Dose % for animal group,"[3]; Blood, single oral dose 15 mg/kg",0.089 ± 0.014%
same,% Reduction of Co-60 vs Co-60 Control,"[3]; Blood, single oral dose 15 mg/kg, 48 hr",0%
same,Co-60 Dose % for animal group,"[3]; Bone Marrow, single oral dose 15 mg/kg",Below detection
same,Co-60 Dose % for animal group,"[3]; Intestine, single oral dose 15 mg/kg",0.94 ± 0.25%
same,% Reduction of Co-60 vs Co-60 Control,"[3]; Intestine, single oral dose 15 mg/kg, 48 hr",47%
same,Co-60 Dose % for animal group,"[3]; Kidney, single oral dose 15 mg/kg",0.31 ± 0.07%
same,% Reduction of Co-60 vs Co-60 Control,"[3]; Kidney, single oral dose 15 mg/kg, 48 hr",56%
same,Co-60 Dose % for animal group,"[3]; Liver, single oral dose 15 mg/kg",0.99 ± 0.25%
same,% Reduction of Co-60 vs Co-60 Control,"[3]; Liver, single oral dose 15 mg/kg, 48 hr",51%
same,Co-60 Dose % for animal group,"[3]; Lung, single oral dose 15 mg/kg",0.16 ± 0.07%
same,% Reduction of Co-60 vs Co-60 Control,"[3]; Lung, single oral dose 15 mg/kg, 48 hr",0%
same,Co-60 Dose % for animal group,"[3]; Muscle, single oral dose 15 mg/kg",0.63 ± 0.18%
same,% Reduction of Co-60 vs Co-60 Control,"[3]; Muscle, single oral dose 15 mg/kg, 48 hr",39%
same,Co-60 Dose % for animal group,"[3]; Spleen, single oral dose 15 mg/kg",0.056 ± 0.007%
same,% Reduction of Co-60 vs Co-60 Control,"[3]; Spleen, single oral dose 15 mg/kg, 48 hr",0%
same,Co-60 Dose % for animal group,"[3]; Stomach, single oral dose 15 mg/kg",0.041 ± 0.014%
same,% Reduction of Co-60 vs Co-60 Control,"[3]; Stomach, single oral dose 15 mg/kg, 48 hr",45%
same,Co-60 Dose % for animal group,"[3]; Total Skeleton (from femur data), single oral dose 15 mg/kg",0.32 ± 0.17%
same,% Reduction of Co-60 vs Co-60 Control,"[3]; Total Skeleton, single oral dose 15 mg/kg, 48 hr",49%
same,effect on blood levels of Co-60,"[3]; single oral dose 15 mg/kg, 48 hr",slightly decreased
same,effect on urinary elimination of Co-60,[3]; [13],did not change
same,increase of fecal elimination of Co-60,[3]; [13],about 3%
same,effect on total Co-60 excretion (urine and feces),[3]; single oral dose 15 mg/kg,slightly increased
same,effect on total Co-60 excretion (urine and feces),"[3]; single oral dose 15 mg/kg, listed as penicillamine",appeared to accelerate
same,"reduction in the fraction of administered dose in the skeleton (based on femur data), liver and kidney","[3]; single oral dose, Co-60",51-56%
same,binding stability constant (log K),[4],3.58
same,% Reduction of Po-210 vs Po-210 Control,[5]; Blood,18%
same,Po-210 dpm/gm for animal group,[5]; Blood,28482 ± 6375 dpm/gm
same,Po-210 dpm/gm for animal group,[5]; Femur,22969 ± 4055 dpm/gm
same,% Reduction of Po-210 vs Po-210 Control,[5]; Kidney,−15%
same,Po-210 dpm/gm for animal group,[5]; Kidney,216172 ± 31993 dpm/gm
same,% Reduction of Po-210 vs Po-210 Control,[5]; Liver,12%
same,Po-210 dpm/gm for animal group,[5]; Liver,124648 ± 47423 dpm/gm
same,% Reduction of Po-210 vs Po-210 Control,[5]; Lung,20%
same,effect on polonium-210 level (in words),[5]; Lung,reduced
same,Po-210 dpm/gm for animal group,[5]; Lung,67342 ± 7895 dpm/gm
same,Po-210 dpm/gm for animal group,[5]; Spleen,236736 ± 35488 dpm/gm
same,% Reduction of Po-210 vs Po-210 Control,[5]; femur,13%
same,effect on polonium-210 level (in words),[5]; femur,reduced
same,% Reduction of Po-210 vs Po-210 Control,[5]; spleen,44%
same,effect on polonium-210 level (in words),[5]; spleen,reduced
same,binding stability constant (log K),[6],16.3
same,binding stability constant (log K),[6]; listed as penicillamine,very strongly
same,binding stability constant (log K),[7],8.98
same,binding stability constant (log K),[8],10.70
same,binding stability constant (log K),[8]; listed as penicillamine,fairly strong
same,binding stability constant (log K),[9],9.71
same,binding stability constant (log K),[9]; listed as penicillamine,fairly strong
same,binding stability constant (log K),[10],11.55
same,binding stability constant (log K),[10]; listed as penicillamine,fairly strong
same,binding stability constant (log K),[11],12.4
same,binding stability constant (log K),[11]; listed as penicillamine,fairly strong
same,binding stability constant (log K),[12],18.18 (Cu^1+)
same,binding stability constant (log K),[12]; listed as penicillamine,very strongly
